Molecular target: human V1a receptor (Homo sapiens (Human), UniProt P37288)
Experiment: human V1a receptor binding studies (3H-Vasopressin, SPA beads)
Conditions: membranes of HEK293 cells transiently transfected with human V1a receptor, Ki by Cheng-Prussoff
Experimental: The human V1a receptor was cloned by RT-PCR from total human liver RNA. The coding sequence was subcloned in an expression vector after sequencing to confirm the identity of the amplified sequence. […] Cell membranes were prepared from HEK293 cells transiently transfected with the expression vector and grown in 20 liter fermenters with the following protocol.
50 g of cells are re-suspended in 30 ml freshly prepared ice cold Lysis buffer (50 mM HEPES, 1 mM EDTA, 10 mM MgCl2 adjusted to pH=7.4+complete cocktail of protease inhibitor (Roche Diagnostics)). Homogenized with Polytron for 1 min and sonicated on ice for 2×2 minutes at 80% intensity (Vibracell sonicator). The preparation is centrifuged 20 min at 500 g at 4° C., the pellet is discarded and the supernatant centrifuged 1 hour at 43,000 g at 4° C. (19,000 rpm). The pellet is re-suspended in 12.5 ml Lysis buffer+12.5 ml Sucrose 20% and homogenized using a Polytron for 1-2 min. The protein concentration is determined by the Bradford method and aliquots are stored at −80° C. until use. For binding studies 60 mg Yttrium silicate SPA beads (Amersham) are mixed with an aliquot of membrane in binding buffer (50 mM Tris, 120 mM NaCl, 5 mM KCl, 2 mM CaCl2, 10 mM MgCl2) for 15 minutes with mixing. 50 μl of bead/membrane mixture is then added to each well of a 96 well plate, followed by 50 μl of 4 nM 3H-Vasopressin (American Radiolabeled Chemicals). For total binding measurement 100 μl of binding buffer are added to the respective wells, for non-specific binding 100 μl of 8.4 mM cold vasopressin and for compound testing 100 μl of a serial dilution of each compound in 2% DMSO. The plate is incubated 1 h at room temperature, centrifuged 1 min at 1000 g and counted on a Packard Top-Count. Non-specific binding counts are subtracted from each well and data is normalized to the maximum specific binding set at 100%. To calculate an IC 50 the curve is fitted using a non-linear regression model (XLfit) and the Ki is calculated using the Cheng-Prussoff equation.

Chain of human V1a receptor (P37288 whole entry): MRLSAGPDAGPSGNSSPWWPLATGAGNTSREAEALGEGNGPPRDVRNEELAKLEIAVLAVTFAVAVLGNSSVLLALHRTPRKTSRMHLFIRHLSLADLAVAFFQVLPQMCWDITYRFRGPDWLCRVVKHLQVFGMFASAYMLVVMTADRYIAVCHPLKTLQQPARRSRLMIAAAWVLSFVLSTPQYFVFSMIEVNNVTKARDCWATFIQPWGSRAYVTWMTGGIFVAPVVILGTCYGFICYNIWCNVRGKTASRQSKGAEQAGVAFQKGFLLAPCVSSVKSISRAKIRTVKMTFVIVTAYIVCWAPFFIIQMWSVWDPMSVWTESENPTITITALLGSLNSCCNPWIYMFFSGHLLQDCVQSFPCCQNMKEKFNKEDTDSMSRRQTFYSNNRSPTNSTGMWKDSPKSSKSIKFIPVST

| SMILES | pKi hV1a |
| --- | --- |
| O=C1N=C(N2CCC3(CC2)OCc2ccccc23)SC1=C1CCCCC1 [Example 52, 5-cyclohexylidene-2-(1′H,3H-spiro[2-benzofuran-1,4′-piperidin]-1′-yl)-1,3-thiazol-4(5H)-one] | 8.5 |
| O=C1N=C(N2CCC3(CC2)OCc2ccccc23)SC1=C1CCCC1 [Example 53, 5-cyclopentylidene-2-(1′H,3H-spiro[2-benzofuran-1,4′-piperidin]-1′-yl)-1,3-thiazol-4(5H)-one] | 8.3 |
| O=C1N=C(N2CCC3(CC2)OCc2ccccc23)S/C1=C1/CCc2cc(O)ccc21 [Example 54, (5E/Z)-5-(5-hydroxy-2,3-dihydro-1H-inden-1-ylidene)-2-(1′H,3H-spiro[2-benzofuran-1,4′-piperidin]-1′-yl)-1,3-thiazol-4(5H)-one] | 7.5 |
| O=C1N=C(N2CCC3(CC2)OCc2ccccc23)S/C1=C1/CC2C3CC4C2C4C13 (centres unmarked) [Example 55, (5E/Z)-5-[hexahydro-1,2,4-(methanetriyl)pentalen-5(1H)-ylidene]-2-(1′H,3H-spiro[2-benzofuran-1,4′-piperidin]-1′-yl)-1,3-thiazol-4(5H)-one] | 8.3 |
| C/C(=C1\SC(N2CCC3(CC2)OCc2ccccc23)=NC1=O)c1ccccc1F [Example 56, (5E)-5-[1-(2-fluorophenyl)ethylidene]-2-(1′H,3H-spiro[2-benzofuran-1,4′-piperidin]-1′-yl)-1,3-thiazol-4(5H)-one] | 8.3 |
| C/C(=C1/SC(N2CCC3(CC2)OCc2ccccc23)=NC1=O)c1ccccc1F [Example 57, (5Z)-5-[1-(2-fluorophenyl)ethylidene]-2-(1′H,3H-spiro[2-benzofuran-1,4′-piperidin]-1′-yl)-1,3-thiazol-4(5H)-one] | 9.0 |
| C/C(CO[Si](C)(C)C(C)(C)C)=C1\SC(N2CCC3(CC2)OCc2ccccc23)=NC1=O [Example 58, (5E)-5-(1-{[tert-butyl(dimethyl)silyl]oxy}propan-2-ylidene)-2-(1′H,3H-spiro[2-benzofuran-1,4′-piperidin]-1′-yl)-1,3-thiazol-4(5H)-one] | 7.2 |
| C/C(CO[Si](C)(C)C(C)(C)C)=C1/SC(N2CCC3(CC2)OCc2ccccc23)=NC1=O [Example 59, (5Z)-5-(1-{[tert-butyl(dimethyl)silyl]oxy}propan-2-ylidene)-2-(1′H,3H-spiro[2-benzofuran-1,4′-piperidin]-1′-yl)-1,3-thiazol-4(5H)-one] | 6.5 |
| O=C1N=C(N2CCC3(CC2)OCc2ccccc23)SC1=C1CCS(=O)(=O)CC1 [Example 60, 5-(1,1-dioxidotetrahydro-4H-thiopyran-4-ylidene)-2-(1′H,3H-spiro[2-benzofuran-1,4′-piperidin]-1′-yl)-1,3-thiazol-4(5H)-one] | 8.0 |
| C/C(=C1/SC(N2CCC3(CC2)OCc2ccccc23)=NC1=O)c1cccnc1F [Example 61, (5Z)-5-[1-(2-fluoropyridin-3-yl)ethylidene]-2-(1′H,3H-spiro[2-benzofuran-1,4′-piperidin]-1′-yl)-1,3-thiazol-4(5H)-one] | 9.1 |
| C/C(=C1/SC(N2CCC3(CC2)OCc2ccccc23)=NC1=O)c1cnn(C)c1 [Example 62, (5Z)-5-[1-(1-methyl-1H-pyrazol-4-yl)ethylidene]-2-(1′H,3H-spiro[2-benzofuran-1,4′-piperidin]-1′-yl)-1,3-thiazol-4(5H)-one] | 8.3 |
| CC/C(=C1/SC(N2CCC3(CC2)OCc2ccccc23)=NC1=O)c1cc(C)on1 [Example 64, (5E/Z)-5-[1-(5-methyl-1,2-oxazol-3-yl)propylidene]-2-(1′H,3H-spiro[2-benzofuran-1,4′-piperidin]-1′-yl)-1,3-thiazol-4(5H)-one] | 8.6 |
| C/C(CNC(=O)OC(C)(C)C)=C1\SC(N2CCC3(CC2)OCc2ccccc23)=NC1=O [Example 65, tert-butyl {(2E)-2-[4-oxo-2-(1′H,3H-spiro[2-benzofuran-1,4′-piperidin]-1′-yl)-1,3-thiazol-5(4H)-ylidene]propyl}carbamate] | 7.7 |
| C/C(CN)=C1\SC(N2CCC3(CC2)OCc2ccccc23)=NC1=O.Cl [Example 66, (5E)-5-(1-aminopropan-2-ylidene)-2-(1′H,3H-spiro[2-benzofuran-1,4′-piperidin]-1′-yl)-1,3-thiazol-4(5H)-one hydrochloride (1:1)] | 6.6 |
| O=C1N=C(N2CCC3(CC2)OCc2ccccc23)S/C1=C1/CCNC(=O)c2cc(Cl)ccc21 [Example 67, (5E/Z)-8-chloro-5-[4-oxo-2-(1′H,3H-spiro[2-benzofuran-1,4′-piperidin]-1′-yl)-1,3-thiazol-5(4H)-ylidene]-2,3,4,5-tetrahydro-1H-2-benzazepin-1-one] | 8.7 |
| CS(=O)(=O)N1CCC(=C2SC(N3CCC4(CC3)OCc3ccccc34)=NC2=O)CC1 [Example 68, 5-[1-(methylsulfonyl)piperidin-4-ylidene]-2-(1′H,3H-spiro[2-benzofuran-1,4′-piperidin]-1′-yl)-1,3-thiazol-4(5H)-one] | 7.7 |
| O=C1N=C(N2CCC3(CC2)OCc2ccccc23)SC1=C(CF)CF [Example 69, 5-(1,3-difluoropropan-2-ylidene)-2-(1′H,3H-spiro[2-benzofuran-1,4′-piperidin]-1′-yl)-1,3-thiazol-4(5H)-one] | 8.0 |
| C=C/C(C)=C1\SC(N2CCC3(CC2)OCc2ccccc23)=NC1=O [Example 70, (5E/Z)-5-(but-3-en-2-ylidene)-2-(1′H,3H-spiro[2-benzofuran-1,4′-piperidin]-1′-yl)-1,3-thiazol-4(5H)-one] | 7.6 |
| C/C(=C1/SC(N2CCC3(CC2)OCc2ccccc23)=NC1=O)C(F)(F)F [Example 71, (5Z)-2-(1′H,3H-spiro[2-benzofuran-1,4′-piperidin]-1′-yl)-5-(1,1,1-trifluoropropan-2-ylidene)-1,3-thiazol-4(5H)-one] | 8.3 |
| CC(=O)OCC(COC(C)=O)=C1SC(N2CCC3(CC2)OCc2ccccc23)=NC1=O [Example 72, 2-[4-oxo-2-(1′H,3H-spiro[2-benzofuran-1,4′-piperidin]-1′-yl)-1,3-thiazol-5(4H)-ylidene]propane-1,3-diyl diacetate] | 8.3 |
| COC1CCCC/C1=C1/SC(N2CCC3(CC2)OCc2ccccc23)=NC1=O (centres unmarked) [Example 73, (5E/Z)-5-(2-methoxycyclohexylidene)-2-(1′H,3H-spiro[2-benzofuran-1,4′-piperidin]-1′-yl)-1,3-thiazol-4(5H)-one] | 8.8 |
| O=C1N=C(N2CCC3(CC2)OCc2ccccc23)S/C1=C1/C(=O)Nc2ccccc21 [Example 74, (3E/Z)-3-[4-oxo-2-(1′H,3H-spiro[2-benzofuran-1,4′-piperidin]-1′-yl)-1,3-thiazol-5(4H)-ylidene]-1,3-dihydro-2H-indol-2-one] | 7.5 |
| O=C1N=C(N2CCC3(CC2)OCc2ccccc23)SC1=C1CCC1 [Example 75, 5-cyclobutylidene-2-(1′H,3H-spiro[2-benzofuran-1,4′-piperidin]-1′-yl)-1,3-thiazol-4(5H)-one] | 7.6 |

Source: patent publication US10092551B2, “Spiro-thiazolones” (Hoffmann-La Roche Inc., priority 2014, dated 2018)
